Reference: ChEMBL document CHEMBL1697821, “Development of a phospholipidosis database and predictive quantitative structure-activity relationship (QSAR) models” (Toxicol Mech Methods, 2008)

System: Phospholipidosis
Experiment: Literature-mined public compounds from Kruhlak et al phospholipidosis modelling dataset

Q: With `CN(C)CCC(c1ccccc1)c1ccccn1` (configuration not stated) [PHENIRAMINE] as the compound, how does the Phospholipidosis read?
A: Negative: based on the absence of positive reported data from WMDD

Q: `C#C[C@]1(O)CC[C@H]2[C@@H]3CCc4cc(O)ccc4[C@H]3CC[C@@]21C` [ETHINYL ESTRADIOL] was tested. Which Phospholipidosis did it give?
A: Negative: based on the absence of positive reported data from WMDD

Q: Which Phospholipidosis does the source give for `CC(C)(N)Cc1ccc(Cl)cc1` [CHLORPHENTERMINE] here?
A: Positive: strong inducer confirmed by electron microscopy

Q: For `O=C(O)c1ccccc1Nc1cccc(C(F)(F)F)c1` [FLUFENAMIC ACID], which Phospholipidosis is on record?
A: Negative: based on the absence of positive reported data from WMDD

Q: Which Phospholipidosis does the source give for `Cc1ncc([N+](=O)[O-])n1CCO` [METRONIDAZOLE] here?
A: Negative: based on the absence of positive reported data from WMDD

Q: `O=[N+]([O-])O[C@@H]1CO[C@H]2[C@@H]1OC[C@@H]2O` [ISOSORBIDE MONONITRATE] was tested. Which Phospholipidosis did it give?
A: Negative: based on the absence of positive reported data from WMDD

Q: How did the Phospholipidosis turn out when `COc1cc([C@@H]2c3cc4c(cc3[C@@H](O[C@@H]3O[C@@H]5CO[C@@H](C)O[C@H]5[C@H](O)[C@H]3O)[C@H]3COC(=O)[C@H]23)OCO4)cc(OC)c1O` [ETOPOSIDE] was run?
A: Negative: confirmed by electron microscopy

Q: Which Phospholipidosis does the source give for `CC(C)N(CCC(C(N)=O)(c1ccccc1)c1ccccn1)C(C)C` (configuration not stated) [DISOPYRAMIDE] here?
A: Negative: based on the absence of positive reported data from WMDD

Q: `NCCc1cc(O)c(O)c(O)c1` was tested. Which Phospholipidosis did it give?
A: Positive: strong inducer confirmed by electron microscopy

Q: With `CC(=O)N1CCN(c2ccc(OCC3COC(Cn4ccnc4)(c4ccc(Cl)cc4Cl)O3)cc2)CC1` (configuration not stated) [KETOCONAZOLE] as the compound, how does the Phospholipidosis read?
A: Positive: weak inducer based on presence of foamy macrophages and cytoplasmic vacuolations

Q: Which Phospholipidosis does the source give for `Cc1ccc2c(-c3ccccc3)nc(=O)n(C(C)C)c2c1` [PROQUAZONE] here?
A: Negative: based on the absence of positive reported data from WMDD

Q: With `CNCCC(Oc1ccc(C(F)(F)F)cc1)c1ccccc1` (configuration not stated) [FLUOXETINE] as the compound, how does the Phospholipidosis read?
A: Positive: strong inducer confirmed by electron microscopy

Q: `NS(=O)(=O)c1cc2c(cc1C(F)(F)F)NCNS2(=O)=O` [HYDROFLUMETHIAZIDE] was tested. Which Phospholipidosis did it give?
A: Negative: based on the absence of positive reported data from WMDD

Q: With `CCC(COC(=O)c1cc(OC)c(OC)c(OC)c1)(c1ccccc1)N(C)C` (configuration not stated) [TRIMEBUTINE] as the compound, how does the Phospholipidosis read?
A: Negative: based on the absence of positive reported data from WMDD

Q: With `CCCN[C@@H]1[C@H](C)[C@@H](O)[C@](C)(O)[C@@H](CC)OC(=O)[C@H](C)[C@@H](O[C@H]2C[C@@](C)(OC)[C@@H](O)[C@H](C)O2)[C@H](C)[C@@H](O[C@@H]2O[C@H](C)C[C@H](N(C)C)[C@H]2O)[C@](C)(O)C[C@H]1C` as the compound, how does the Phospholipidosis read?
A: Positive: weak inducer based on presence of foamy macrophages and cytoplasmic vacuolations

Q: How did the Phospholipidosis turn out when `CN1CCN(C(c2ccccc2)c2ccc(Cl)cc2)CC1` (configuration not stated) [CHLORCYCLIZINE] was run?
A: Positive: strong inducer confirmed by electron microscopy

Q: How did the Phospholipidosis turn out when `CN(C)[C@@H]1C(O)=C(C(N)=O)C(=O)[C@@]2(O)C(O)=C3C(=O)c4c(O)ccc(Cl)c4[C@@](C)(O)[C@H]3C[C@@H]12` [CHLORTETRACYCLINE] was run?
A: Negative: confirmed by electron microscopy

Q: For `CC(=O)OCC(=O)[C@H]1CC[C@H]2[C@@H]3CCC4=CC(=O)CC[C@]4(C)[C@H]3CC[C@]12C` [DESOXYCORTICOSTERONE ACETATE], which Phospholipidosis is on record?
A: Negative: based on the absence of positive reported data from WMDD

Q: For `CC(=O)c1ccc2c(c1)N(CCCN1CCN(CCO)CC1)c1ccccc1S2` [ACETOPHENAZINE], which Phospholipidosis is on record?
A: Negative: based on the absence of positive reported data from WMDD

Q: Which Phospholipidosis does the source give for `NC[C@H]1O[C@H](O[C@H]2[C@H](O)[C@@H](O[C@H]3O[C@H](CO)[C@@H](O)[C@H](N)[C@H]3O)[C@H](N)C[C@@H]2N)[C@H](N)[C@@H](O)[C@@H]1O` [BEKANAMYCIN] here?
A: Negative: based on the absence of positive reported data from WMDD

Q: `CN1CCN(C2=Nc3ccccc3Oc3ccc(Cl)cc32)CC1` [LOXAPINE] was tested. Which Phospholipidosis did it give?
A: Negative: based on the absence of positive reported data from WMDD

Q: How did the Phospholipidosis turn out when `CN1CCC(=C2c3ccccc3CC(=O)c3sccc32)CC1` [KETOTIFEN] was run?
A: Negative: based on the absence of positive reported data from WMDD

Q: How did the Phospholipidosis turn out when `N=C(N)c1ccc(/C=C/c2ccc(C(=N)N)cc2)cc1` [STILBAMIDINE] was run?
A: Positive: weak inducer based on presence of foamy macrophages and cytoplasmic vacuolations

Q: How did the Phospholipidosis turn out when `CC[C@]1(O)CC[C@H]2[C@@H]3CCC4=CC(=O)CC[C@@H]4[C@H]3CC[C@@]21C` [NORETHANDROLONE] was run?
A: Negative: based on the absence of positive reported data from WMDD

Q: With `CCN(CC)CC(=O)Nc1c(C)cccc1C` [LIDOCAINE] as the compound, how does the Phospholipidosis read?
A: Positive: weak inducer based on presence of foamy macrophages and cytoplasmic vacuolations

Q: `CC[N+](CC)(CC)CCOc1cccc(OCC[N+](CC)(CC)CC)c1OCC[N+](CC)(CC)CC.[I-].[I-].[I-]` [GALLAMINE TRIETHIODIDE] was tested. Which Phospholipidosis did it give?
A: Negative: based on the absence of positive reported data from WMDD

Q: With `CN1C(=O)CN=C(c2ccccc2)c2cc([N+](=O)[O-])ccc21` [NIMETAZEPAM] as the compound, how does the Phospholipidosis read?
A: Negative: based on the absence of positive reported data from WMDD

Q: `COc1cccc2c1C(=O)c1c(O)c3c(c(O)c1C2=O)C[C@@](O)(/C(C)=N/NC(=O)c1ccccc1)C[C@@H]3O[C@H]1C[C@H](N)[C@H](O)[C@H](C)O1` [ZORUBICIN] was tested. Which Phospholipidosis did it give?
A: Negative: based on the absence of positive reported data from WMDD

Q: Which Phospholipidosis does the source give for `N[C@@H](CSCC(=O)O)C(=O)O` [CARBOCYSTEINE] here?
A: Negative: based on the absence of positive reported data from WMDD

Q: For `Nc1ncnc2c1ncn2[C@@H]1O[C@H](CO)[C@@H](O)[C@H]1O` [ADENOSINE], which Phospholipidosis is on record?
A: Negative: based on the absence of positive reported data from WMDD

Q: Which Phospholipidosis does the source give for `CCN(CC)C(=O)C1CN2CCc3cc(OC)c(OC)cc3C2CC1OC(C)=O` (configuration not stated) [BENZQUINAMIDE] here?
A: Negative: based on the absence of positive reported data from WMDD

Q: Which Phospholipidosis does the source give for `C[N+](C)(C)CCOC(=O)CCC(=O)OCC[N+](C)(C)C` [SUXAMETHONIUM] here?
A: Negative: based on the absence of positive reported data from WMDD

Q: For `CN(C)CCC=C1c2ccccc2CCc2c(Cl)cccc21`, which Phospholipidosis is on record?
A: Positive: strong inducer confirmed by electron microscopy

Q: How did the Phospholipidosis turn out when `Nc1nc(F)nc2c1ncn2[C@@H]1O[C@H](COP(=O)(O)O)[C@@H](O)[C@@H]1O` [FLUDARABINE PHOSPHATE] was run?
A: Negative: based on the absence of positive reported data from WMDD

Q: How did the Phospholipidosis turn out when `CC(=O)CC(c1ccccc1)c1c(O)c2ccccc2oc1=O` (configuration not stated) [WARFARIN] was run?
A: Negative: based on the absence of positive reported data from WMDD

Q: For `CC(=O)OC(C)C[N+](C)(C)C` (configuration not stated) [METHACHOLINE], which Phospholipidosis is on record?
A: Negative: based on the absence of positive reported data from WMDD

Q: For `CCN(CC)CCN1C(=O)CN=C(c2ccccc2F)c2cc(Cl)ccc21` [FLURAZEPAM], which Phospholipidosis is on record?
A: Negative: based on the absence of positive reported data from WMDD

Q: IVERMECTIN was tested. Which Phospholipidosis did it give?
A: Negative: based on the absence of positive reported data from WMDD

Q: Which Phospholipidosis does the source give for `OC(CN1CCCCC1)c1ccc(C=C2c3ccccc3-c3ccccc32)cc1` (configuration not stated) here?
A: Positive: strong inducer confirmed by electron microscopy

Q: With `CCCC[C@@H]1CC(=O)[C@]2(O)O[C@@H]3[C@@H](NC)[C@@H](O)[C@@H](NC)[C@H](O)[C@H]3O[C@@H]2O1.O=S(=O)(O)O` as the compound, how does the Phospholipidosis read?
A: Positive: strong inducer confirmed by electron microscopy

Q: Which Phospholipidosis does the source give for `CC(C)NCC1CCc2cc(CO)c([N+](=O)[O-])cc2N1` (configuration not stated) [OXAMNIQUINE] here?
A: Negative: based on the absence of positive reported data from WMDD

Q: How did the Phospholipidosis turn out when `CCCCCCC(=O)OCCN1CCN(CCCN2c3ccccc3Sc3ccc(C(F)(F)F)cc32)CC1` [FLUPHENAZINE ENANTHATE] was run?
A: Negative: based on the absence of positive reported data from WMDD

Q: For `CNC(=O)c1c(I)c(NC(C)=O)c(I)c(C(=O)O)c1I` [IOTHALAMIC ACID], which Phospholipidosis is on record?
A: Negative: based on the absence of positive reported data from WMDD

Q: `Cn1c(=O)c2c(ncn2CC2OCCO2)n(C)c1=O` [DOXOFYLLINE] was tested. Which Phospholipidosis did it give?
A: Negative: based on the absence of positive reported data from WMDD

Q: `CN(C)CCC=C1c2ccccc2CCc2ccccc21` [AMITRIPTYLINE] was tested. Which Phospholipidosis did it give?
A: Positive: strong inducer confirmed by electron microscopy

Q: `C#CCN(C)[C@H](C)Cc1ccccc1` [SELEGILINE] was tested. Which Phospholipidosis did it give?
A: Negative: based on the absence of positive reported data from WMDD

Q: With `CN(C)CCCN1c2ccccc2C(C)(C)c2ccccc21` [DIMETACRINE] as the compound, how does the Phospholipidosis read?
A: Negative: based on the absence of positive reported data from WMDD

Q: `Cc1cc(-c2ccc(/N=N/c3ccc4c(S(=O)(=O)[O-])cc(S(=O)(=O)[O-])c(N)c4c3O)c(C)c2)ccc1/N=N/c1ccc2c(S(=O)(=O)[O-])cc(S(=O)(=O)[O-])c(N)c2c1O.[Na+].[Na+].[Na+].[Na+]` [EVANS BLUE] was tested. Which Phospholipidosis did it give?
A: Negative: based on the absence of positive reported data from WMDD

Q: For `Cn1c(=O)c2c(ncn2C)n(C)c1=O` [CAFFEINE], which Phospholipidosis is on record?
A: Negative: confirmed by electron microscopy

Q: For `O=C1CC2(CCCC2)CC(=O)N1CCCCN1CCN(c2ncccn2)CC1` [BUSPIRONE], which Phospholipidosis is on record?
A: Negative: confirmed by electron microscopy

Q: Which Phospholipidosis does the source give for `CC(COc1ccccc1)NC(C)C(O)c1ccc(O)cc1` (configuration not stated) [ISOXSUPRINE] here?
A: Negative: based on the absence of positive reported data from WMDD

Q: `CO/N=C(\C(=O)N[C@@H]1C(=O)N2C(C(=O)O)=C(CSc3nc(=O)c(=O)[nH]n3C)CS[C@H]12)c1csc(N)n1` [CEFTRIAXONE] was tested. Which Phospholipidosis did it give?
A: Negative: based on the absence of positive reported data from WMDD

Q: For `NS(=O)(=O)c1cc2c(cc1Cl)NC(C(Cl)Cl)NS2(=O)=O` (configuration not stated) [TRICHLORMETHIAZIDE], which Phospholipidosis is on record?
A: Negative: based on the absence of positive reported data from WMDD

Q: For `NC(=O)c1cc[n+](CC2=C(C(=O)O)N3C(=O)[C@@H](NC(=O)[C@@H](c4ccccc4)S(=O)(=O)[O-])[C@H]3SC2)cc1` [CEFSULODIN], which Phospholipidosis is on record?
A: Negative: based on the absence of positive reported data from WMDD

Q: Which Phospholipidosis does the source give for `CCCC(C)C1(CC)C(=O)NC(=S)NC1=O` (configuration not stated) [THIOPENTAL] here?
A: Negative: based on the absence of positive reported data from WMDD

Q: How did the Phospholipidosis turn out when `CCOC(=O)c1cncn1[C@H](C)c1ccccc1` [ETOMIDATE] was run?
A: Negative: based on the absence of positive reported data from WMDD

Q: Which Phospholipidosis does the source give for `O=C1CN2CCOC2(c2ccccc2F)c2cc(Cl)ccc2N1CCO` (configuration not stated) [FLUTAZOLAM] here?
A: Negative: based on the absence of positive reported data from WMDD
